Where two headings read alike, the source gives them in different places.
How the values were obtained:
[1] = Literature oral absorption of apple procyanidins (J. Agric. Food Chem., 54, 884-892, 2006); assay type: in vivo, rats; conditions: worked out from literature values, A in mg/kg
Excerpt: Studies on oral absorbability of various kinds of proanthocyanidins have reported that oligomers with a low degree of polymerization are efficiently orally absorbed (see R. R. Holt, S. A. Lazarus, M. C. Sullards, Q. Y. Zhu, D. D. Schramm, J. F. Hammerstone, C. G. Fraga, H. H. Schmitz and C. L. Keen, Procyanidin dimer B2 [epicatechin-(4β-8)-epicatechin] in human plasma after the consumption of a flavanol-rich cocoa. Am. J. Clin. Nutr. 2002, 76, p. 798-804. T. Shoji, S. Masumoto, N. Moriichi, H. Akiyama, T. Kanda, Y. Ohtake, Y. Goda. Apple procyanidin oligomers absorption in rats after oral administration: Analysis of procyanidins in plasma using the porter method and High-Performance Liquid Chromatography/Tandem Mass Spectrometry. J. Agric. Food Chem. 2006, 54, p. 884-892).

[2] = Apple, literature values; cited from earlier work
[3] = Oral absorbability evaluation test of proanthocyanidins extracted from Boysenberry seed (LC/MS/MS of blood plasma); assay type: in vivo, Wistar rats; conditions: Boysenberry seed (present invention); for B/A (blood concentration after 2 hours / administration quantity): A in mg/kg, B in μg/mL; for Blood concentration after 2 hours B: partitioned concentrate of seed extract 1000 mg/kg oral, Wistar rats, plasma
Experimental: The test animal used was Wistar rats (males, aged 9 weeks, with initial weight of 190 to 210 g, obtained from Japan SLC, Inc.). After fasting for 12 hours, the Wister rats were forcefully orally administered each 1000 mg/kg of the partitioned concentrate of seed extract or the partitioned concentrate of thermally-treated seed extract obtained in Example 1. Then, every 1, 2, 4, and 6 hours after the administration, the rats were killed to collect the whole blood. Each whole blood was centrifuged for 10 minutes at 4° C. at 2,000×g to obtain blood plasma as a supernatant. To 1 mL of each blood plasma were added 30 μL of 50% formic acid and 100 μL of 10 mM ascorbic acid solution to mix together, and to 1 mL of the mixed blood plasma solution were added 50 μL of (1 μg of) a catechol solution as an internal standard reagent and 30 μL of phosphoric acid to prepare each sample for analysis. Regarding the samples, measurements of a procyanidin dimer, a propelargonidin dimer, a procyanidin trimer, and a propelargonidin trimer were carried out at molecular weights of 577/289, 561/289, 865/289, and 849/289, using a liquid chromatography-mass spectrometry (LC/MS) (Shimadzu Prominence UFLC manufactured by Shimadzu Corp.; with ODS column; gradient elution with formic acid, methanol, and water) and MS/MS (API 3200 manufactured by Applied Biosystems Co. Ltd., negative-ion mode) to determine the quantities of the proanthocyanidins in the blood plasma. […] Additionally, FIG. 5 and Table 3 show LC/MS charts of the measurements of proanthocyanidin dimer and trimer components in the blood plasma after 2 hours of the administration of the partitioned concentrate of seed extract.

| Compound | B/A (blood concentration after 2 hours / administration quantity) [1] | Blood concentration after 2 hours B [2] [ng/mL] | B/A (blood concentration after 2 hours / administration quantity) [3] | Blood concentration after 2 hours B [3] [ng/mL] |
| --- | --- | --- | --- | --- |
| Oc1cc(O)c2c(c1)O[C@H](c1ccc(O)c(O)c1)[C@H](O)[C@H]2c1c(O)cc(O)c2c1O[C@H](c1ccc(O)c(O)c1)[C@@H](O)C2 [PC dimer B1] | 2.4 (×10^−6) (kg/ml) | 120 |  |  |
| Oc1cc(O)c2c(c1)O[C@H](c1ccc(O)c(O)c1)[C@H](O)[C@H]2c1c(O)cc(O)c2c1O[C@H](c1ccc(O)c(O)c1)[C@H](O)C2 [PC dimer B2, epicatechin-(4β-8)-epicatechin] | 2.5 (×10^−6) (kg/ml) | 230 |  |  |
| Oc1cc(O)c2c(c1)O[C@H](c1ccc(O)c(O)c1)[C@@H](O)[C@@H]2c1c(O)cc(O)c2c1O[C@H](c1ccc(O)c(O)c1)[C@@H](O)C2 [PC dimer B3, Procyanidin B3] |  |  | 30.0 (×10^−6) (kg/ml) | 120 |
| Oc1cc(O)c2c(c1)O[C@H](c1ccc(O)c(O)c1)[C@@H](O)[C@@H]2c1c(O)cc(O)c2c1O[C@H](c1ccc(O)c(O)c1)[C@H](O)C2 [PC dimer B4, Procyanidin B4] |  |  | 32.9 (×10^−6) (kg/ml) | 560 |
| Oc1cc(O)c2c(c1)O[C@H](c1ccc(O)c(O)c1)[C@H](O)[C@H]2c1c(O)cc(O)c2c1O[C@H](c1ccc(O)c(O)c1)[C@H](O)[C@H]2c1c(O)cc(O)c2c1O[C@H](c1ccc(O)c(O)c1)[C@H](O)C2 [PC trimer C1] | 1.9 (×10^−6) (kg/ml) | 120 | 25.0 (×10^−6) (kg/ml) | 200 |

— US8859022B2, “Antihypertensive agents” (Bourbon Corporation, priority 2011, dated 2014)
